The values that follow come from patent US5653961A, “Butixocort aerosol formulations in hydrofluorocarbon propellant” (Minnesota Mining and Manufacturing Company, priority 1995, dated 1997).

Converted amounts (≈) assume the structure as drawn.

This series is described as follows: Solubility of butixocort propionate in propellants and propellant/ethanol blends. In kind it is physicochemical. The protocol:
Solubility of butixocort propionate in P134a, P227, and blends thereof with ethanol, was determined as follows: Drug and the selected propellant system were combined and agitated for a period of seven days at a selected temperature to afford a saturated solution. The solid was filtered off and the supernatant was weighed. The propellant was removed by evaporation and the drug was reconstituted quantitatively. The concentration of the drug in the reconstituted solution was determined and from this the mount and concentration of drug dissolved in the propellant system was calculated. TABLES 1 and 2 show the average of three independent determinations.

Take `CCCC(=O)O[C@]1(C(=O)CSC(=O)CC)CC[C@H]2[C@@H]3CCC4=CC(=O)CC[C@]4(C)[C@H]3[C@@H](O)C[C@@]21C` [Butixocort propionate, 11-beta-hydroxypregn-4-ene-3,20-dione-21-thiopropionate-17-butyrate]: the “solubility in HFA 134a” value (HFA 134a, 20° C.) is given as “about 0.02 % by weight”. Moreover, the “solubility in HFA 227” value (HFA 227, 20° C.) is “about 0.03 % by weight”. The solubility (as a rule, the concentration that dissolves in the medium under given conditions) at 168 h came to 300 µg/mL (≈ 594 µM) (propellant 134a, 0% ethanol, organic solvent or mixture, 0 weight % ethanol, 20°C, Table 2, average of three determinations); 751 µg/mL (≈ 1490 µM) (propellant 134a, 1% ethanol, organic solvent or mixture, 1 weight % ethanol, 20°C, Table 2); 1760 µg/mL (≈ 3480 µM) (propellant 134a, 2.5% ethanol, organic solvent or mixture, 2.5 weight % ethanol, 20°C, Table 2); 4180 µg/mL (≈ 8280 µM) (propellant 134a, 5% ethanol, organic solvent or mixture, 5 weight % ethanol, 20°C, Table 2); 6960 µg/mL (≈ 13800 µM) (propellant 134a, 7.5% ethanol, organic solvent or mixture, 7.5 weight % ethanol, 20°C, Table 2); 9630 µg/mL (≈ 19100 µM) (propellant 134a, 10% ethanol, organic solvent or mixture, 10 weight % ethanol, 20°C, Table 2). The solubility at 168 h by setting is: (propellant 134a, organic solvent or mixture, 4 °C, Table 1, average of three determinations) 103 µg/mL (≈ 204 µM); (propellant 134a, organic solvent or mixture, 20 °C, Table 1, average of three determinations) 203 µg/mL (≈ 402 µM); (propellant 134a, organic solvent or mixture, 30 °C, Table 1, average of three determinations) 300 µg/mL (≈ 594 µM); (propellant 134a, organic solvent or mixture, 40 °C, Table 1, average of three determinations) 319 µg/mL (≈ 632 µM); (propellant 227, 0% ethanol, organic solvent or mixture, Propellant 227, 0 weight % ethanol, 20°C, Table 2, average of three determinations) 395 µg/mL (≈ 783 µM); (propellant 227, 1% ethanol, organic solvent or mixture, Propellant 227, 1 weight % ethanol, 20°C, Table 2) 971 µg/mL (≈ 1920 µM). In addition, the solubility at 168 h runs as follows: (propellant 227, 2.5% ethanol, organic solvent or mixture, Propellant 227, 2.5 weight % ethanol, 20°C, Table 2) 1110 µg/mL (≈ 2210 µM); (propellant 227, 5% ethanol, organic solvent or mixture, Propellant 227, 5 weight % ethanol, 20°C, Table 2) 3850 µg/mL (≈ 7630 µM); (propellant 227, 7.5% ethanol, organic solvent or mixture, Propellant 227, 7.5 weight % ethanol, 20°C, Table 2) 6200 µg/mL (≈ 12300 µM); (propellant 227, 10% ethanol, organic solvent or mixture, Propellant 227, 10 weight % ethanol, 20°C, Table 2) 8520 µg/mL (≈ 16900 µM); (propellant 227, organic solvent or mixture, Propellant 227, 4 °C, Table 1, average of three determinations) 261 µg/mL (≈ 517 µM); (propellant 227, organic solvent or mixture, Propellant 227, 20 °C, Table 1, average of three determinations) 285 µg/mL (≈ 565 µM). Moreover, the solubility at 168 h was 306 µg/mL (≈ 606 µM) (propellant 227, organic solvent or mixture, Propellant 227, 30 °C, Table 1, average of three determinations) and 317 µg/mL (≈ 628 µM) (propellant 227, organic solvent or mixture, Propellant 227, 40 °C, Table 1, average of three determinations).
